Experimental findings from patent publication US20250011311A1, “AMIDO HETEROAROMATIC COMPOUNDS” (AstraZeneca AB, priority 2022, published 2025) are described below.

In data set [1] the target is over expressed HSD17β9 in HEK293S cells (Homo sapiens (Human), UniProt Q92781). Put plainly: In Vitro 17bHSD9 Cell Assay. It is filed as cell-based. Particulars: HEK293S cells over expressing HSD17β9; retinol to retinal conversion, 18 h, LC-MS/MS; read-out: 17bHSD9 Cell assay IC50. The procedure, abridged:
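HEK293S cells overexpressing HSD17β9 were plated at 10K cells/well in DMEM + 10% FBS and cultured 18 h. Retinol-to-retinal conversion in media was quantified by LC-MS/MS (MRM) as retinal/(retinal + retinol). IC50 was fitted after normalisation to DMSO and full inhibition by a reference inhibitor.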

Data set [2] has as its target human CB1 receptor expressed in transfected CHO cells (Homo sapiens (Human), UniProt P21554). The experiment in a line: Assay C: CB1 Agonism Assay. Format: cell-based. The settings on record: agonist activity, cAMP HTRF, read-out: Assay C: CB1 Hu CHO cAMP TRF Ag CR GMean EC50. The protocol: Assay C: CB1 Agonism Assay
Evaluation of the agonist activity of compounds at the human CB1 receptor expressed in transfected CHO cells, determined by measuring their effects on cAMP modulation using the HTRF detection method.
Thereafter, the adenylyl cyclase activator NKH 477 is added at a final concentration of 3 μM. Following 20 min incubation at 37° C., the cells are lysed and the fluorescence acceptor (D2-labeled cAMP) and fluorescence donor (anti-cAMP antibody labeled with europium cryptate) are added. After 60 min at room temperature, the fluorescence transfer is measured at gex=337 nm and gem=620 and 665 nm using a microplate reader (RUBYSTAR, BMG). The cAMP concentration is determined by dividing the signal measured at 665 nm by that measured at 620 nm (ratio). The results are expressed as a percent of the control response to 30 nM CP 55940. The standard reference agonist is CP 55940, which is tested in each experiment at several concentrations to generate a concentration-response curve from which its EC50 value is calculated.
Bibliographic reference Felder, C. C. et al., (1995), Comparison of the pharmacology and signal transduction of the human cannabinoid CB1 and CB2 receptors, Mol. Pharmacol., 48: 443, which is incorporated herein by reference.

A short description of data set [3]: Metabolism Study: in vitro study to identify metabolites. Format: in vitro ADME. The text has this: Metabolites 1 and 2 were subsequently synthesised and characterised.

human CB1 receptor expressed in transfected CHO cells, sequence (P21554 whole entry): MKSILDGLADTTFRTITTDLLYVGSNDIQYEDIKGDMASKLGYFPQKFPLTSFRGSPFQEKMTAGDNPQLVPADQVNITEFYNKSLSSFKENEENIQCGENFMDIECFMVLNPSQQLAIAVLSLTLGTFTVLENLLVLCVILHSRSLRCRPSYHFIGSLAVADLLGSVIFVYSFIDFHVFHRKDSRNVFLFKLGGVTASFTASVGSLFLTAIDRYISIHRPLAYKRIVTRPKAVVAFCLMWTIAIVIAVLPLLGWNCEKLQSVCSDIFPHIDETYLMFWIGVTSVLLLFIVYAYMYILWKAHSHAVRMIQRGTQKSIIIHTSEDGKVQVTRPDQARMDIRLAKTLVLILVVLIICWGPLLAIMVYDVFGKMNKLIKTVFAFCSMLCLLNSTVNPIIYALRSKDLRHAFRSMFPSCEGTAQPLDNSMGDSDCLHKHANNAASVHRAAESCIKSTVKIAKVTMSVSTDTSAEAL
over expressed HSD17β9 in HEK293S cells, sequence (Q92781 whole entry): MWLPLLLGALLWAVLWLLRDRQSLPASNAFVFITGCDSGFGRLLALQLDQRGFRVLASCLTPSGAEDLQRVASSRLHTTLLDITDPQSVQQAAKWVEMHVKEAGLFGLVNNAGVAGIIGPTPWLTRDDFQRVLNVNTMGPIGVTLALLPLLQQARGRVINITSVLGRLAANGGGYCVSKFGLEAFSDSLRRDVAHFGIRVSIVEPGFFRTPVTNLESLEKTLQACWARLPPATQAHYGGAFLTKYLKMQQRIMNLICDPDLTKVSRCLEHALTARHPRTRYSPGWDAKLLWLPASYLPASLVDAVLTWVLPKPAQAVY

On to `CC[C@H]1CN(C(=O)c2noc(-c3cc(F)c(F)c(O)c3F)n2)C[C@@H](C)O1` (racemic) [Example 121, rac-((2R,6S)-2-Ethyl-6-methylmorpholino)(5-(2,4,5-trifluoro-3-hydroxyphenyl)-1,2,4-oxadiazol-3-yl)methanone], for which the 50% inhibitory concentration (IC50) in data set [1] was found to be 16.4 µM. Also, in data set [2], the EC50 is > 10 µM.

Take `CC(C)[C@H]1CN(C(=O)c2noc(-c3cc(F)c(F)c(O)c3F)n2)C[C@@H](C)O1` (racemic) [Example 122, rac-((2R,6S)-2-isopropyl-6-methylmorpholino)(5-(2,4,5-trifluoro-3-hydroxyphenyl)-1,2,4-oxadiazol-3-yl)methanone]: the half-maximal inhibitory concentration (IC50) in data set [1] was determined as 8.3 µM. In addition, the EC50 in data set [2] came to 22.3 µM.

In the case of `CC1CN(C(=O)c2noc(-c3cc(F)c(F)c(O)c3F)n2)CC2(CCC2)O1` (racemic) [Example 123, (6-Methyl-5-oxa-8-azaspiro[3.5]nonan-8-yl)(5-(2,4,5-trifluoro-3-hydroxyphenyl)-1,2,4-oxadiazol-3-yl)methanone], the IC50 in data set [1] came out at 30 µM. Also, the half-maximal effective concentration (EC50) in data set [2] was > 3 µM.

For the compound `C[C@@H]1CN(C(=O)c2ccc(-c3cc(F)c(F)c(O)c3F)s2)C[C@H](C)O1` [Example 3, ((2R,6S)-2,6-Dimethylmorpholino)(5-(2,4,5-trifluoro-3-hydroxyphenyl)thiophen-2-yl)methanone], the half-inhibitory concentration (IC50) in data set [1] is > 50 µM. The concentration giving a half-maximal response (EC50) in data set [2] is > 100 µM.

On to `COc1ccccc1C1CCN(C(=O)c2noc(-c3cc(F)c(F)c(O)c3F)n2)C1` (centres unmarked) [Example 4, (3-(2-Methoxyphenyl)pyrrolidin-1-yl)(5-(2,4,5-trifluoro-3-hydroxyphenyl)-1,2,4-oxadiazol-3-yl)methanone], for which the concentration for half-maximal inhibition (IC50) in data set [1] stood at 13 µM. Further, in data set [2], the EC50 worked out at 1.9 µM.

Consider `O=C(c1noc(-c2ccc(F)c(O)c2)n1)N1CC[C@H](c2ccccc2)C1` [Example 11, (R)-(5-(4-Fluoro-3-hydroxyphenyl)-1,2,4-oxadiazol-3-yl)(3-phenylpyrrolidin-1-yl)methanone], for which the half-maximal inhibitory concentration (IC50) in data set [1] is > 50 µM. Also, in data set [2], the EC50 turned out to be 3.1 µM.

For `C[C@@H]1C[C@H](C)CN(C(=O)c2noc(-c3cc(F)c(F)c(O)c3F)n2)C1` [Example 37, ((3R,5S)-3,5-Dimethylpiperidin-1-yl)(5-(2,4,5-trifluoro-3-hydroxyphenyl)-1,2,4-oxadiazol-3-yl)methanone], the IC50 in data set [1] was determined as 10 µM. The EC50 in data set [2] stood at 2.5 µM.

On to `N#Cc1cccc2c1CCN(C(=O)c1noc(-c3cc(F)c(F)c(O)c3F)n1)C2` [Example 66, 2-(5-(2,4,5-Trifluoro-3-hydroxyphenyl)-1,2,4-oxadiazole-3-carbonyl)-1,2,3,4-tetrahydroisoquinoline-5-carbonitrile], for which, in data set [1], the IC50 is > 50 µM. Also, the EC50 in data set [2] was 3.2 µM.

`N#Cc1ccc2c(c1)CN(C(=O)c1noc(-c3cc(F)c(F)c(O)c3F)n1)CC2` [Example 86, 2-(5-(2,4,5-Trifluoro-3-hydroxyphenyl)-1,2,4-oxadiazole-3-carbonyl)-1,2,3,4-tetrahydroisoquinoline-7-carbonitrile]: the concentration for half-maximal inhibition (IC50) in data set [1] amounted to 21.1 µM. Moreover, in data set [2], the EC50 amounted to 5.7 µM.

`C[C@@H]1CN(C(=O)c2noc(-c3cc(F)c(F)c(O)c3F)n2)C[C@H](C)O1` [Example 87, ((2R,6S)-2,6-Dimethylmorpholino)(5-(2,4,5-trifluoro-3-hydroxyphenyl)-1,2,4-oxadiazol-3-yl)methanone]: in data set [1], the IC50 is 36.3 µM. For the same compound, in data set [3], the metabolites identified result was “yielded Metabolite 1 and Metabolite 2”. Further, the half-maximal effective concentration (EC50) in data set [2] amounted to 46 µM.

Regarding `C[C@@H]1CN(C(=O)c2cc(-c3cc(F)c(F)c(O)c3F)on2)C[C@H](C)O1` [Example 89, ((2R,6S)-2,6-Dimethylmorpholino)(5-(2,4,5-trifluoro-3-hydroxyphenyl)isoxazol-3-yl)methanone], in data set [1], the IC50 was > 50 µM. Besides, the half-maximal effective concentration (EC50) in data set [2] was determined as 78.2 µM.

Turning to `C[C@@H]1C[C@H](C)CN(C(=O)c2nc(-c3cc(F)c(F)c(O)c3F)no2)C1` [Example 111, ((3R,5S)-3,5-Dimethylpiperidin-1-yl)(3-(2,4,5-trifluoro-3-hydroxyphenyl)-1,2,4-oxadiazol-5-yl)methanone], the IC50 in data set [1] was > 50 µM. In data set [2], the concentration giving a half-maximal response (EC50) is 3.4 µM.

Regarding `O=C(c1noc(-c2cc(F)c(F)c(O)c2F)n1)N1CCO[C@@H]2CCC[C@@H]21` [Example 113, ((4aS,7aR)-Hexahydrocyclopenta[b][1,4]oxazin-4(4aH)-yl)(5-(2,4,5-trifluoro-3-hydroxyphenyl)-1,2,4-oxadiazol-3-yl)methanone], the 50% inhibitory concentration (IC50) in data set [1] was > 50 µM. The 50% effective concentration (EC50) in data set [2] stood at 0.4 µM.

On to `O=C(c1noc(-c2cc(F)c(F)c(O)c2F)n1)N1CCO[C@@H]2CCC[C@H]21` [Example 114, ((4aR,7aR)-Hexahydrocyclopenta[b][1,4]oxazin-4(4aH)-yl)(5-(2,4,5-trifluoro-3-hydroxyphenyl)-1,2,4-oxadiazol-3-yl)methanone], for which, in data set [1], the IC50 was determined as 15.8 µM. Also, the half-maximal effective concentration (EC50) in data set [2] stood at 60.5 µM.

Take `O=C(c1noc(-c2cc(F)c(F)c(O)c2F)n1)N1CCO[C@H]2CCC[C@@H]21` [Example 115, ((4aS,7aS)-Hexahydrocyclopenta[b][1,4]oxazin-4(4aH)-yl)(5-(2,4,5-trifluoro-3-hydroxyphenyl)-1,2,4-oxadiazol-3-yl)methanone]: the half-maximal inhibitory concentration (IC50) in data set [1] turned out to be 32.5 µM. The 50% effective concentration (EC50) in data set [2] was > 100 µM.

For `CC1CN(C(=O)c2noc(-c3cc(F)c(F)c(O)c3F)n2)CC(C)(C)O1` (centres unmarked) [Example 117, (5-(2,4,5-Trifluoro-3-hydroxyphenyl)-1,2,4-oxadiazol-3-yl)(2,2,6-trimethylmorpholino)methanone], in data set [1], the IC50 is > 50 µM. Further, the concentration giving a half-maximal response (EC50) in data set [2] stood at 0.5 µM.

As to `C[C@@H]1CN(C(=O)c2cnc(-c3cc(F)c(F)c(O)c3F)s2)C[C@H](C)O1` [Example 120, ((2R,6S)-2,6-Dimethylmorpholino)(2-(2,4,5-trifluoro-3-hydroxyphenyl)thiazol-5-yl)methanone], the half-maximal inhibitory concentration (IC50) in data set [1] is > 50 µM. Further, in data set [2], the EC50 came to 8.5 µM.

Broadly, the IC50 is the concentration that gives 50% inhibition. One may read the EC50 as the concentration at which the effect is half-maximal.
